The results in this text go back to patent US8853258B2, “C-linked hydroxamic acid derivatives useful as antibacterial agents” (Pfizer Inc., priority 2009, dated 2014).

The target of data set [1] is Pseudomonas aeruginosa LpxC enzyme (Pseudomonas aeruginosa (strain ATCC 15692 / DSM 22644 / CIP 104116 / JCM 14847 / LMG 12228 / 1C / PRS 101 / PAO1), UniProt P47205). As to the kind of experiment: IC50 Assay, LpxC Enzyme from P. aeruginosa (PA LpxC Enzyme IC50). Type of data set: biochemical. In short, it runs like this: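 Product formation quantified by RapidFire HTMS after a 1 h enzyme reaction quenched with 1N HCl.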

For data set [2], the system named is Acinetobacter baumanii/haemolyticus: Multidrug-resistant clinical isolate (AB-3167). Kind of data set: MIC determination (CLSI), AB-3167. Type of data set: cell-based. Particulars: for MIC: Acinetobacter baumannii; for AB-3167 MIC: Acinetobacter baumanii/haemolyticus multidrug-resistant clinical isolate AB-3167. In short, it runs like this: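 Multidrug-resistant clinical isolate AB-3167 (A. baumannii/haemolyticus) tested for minimum inhibitory concentration following CLSI dilution susceptibility standards M7-A7 and M100-S18.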

In data set [3] the test system is Escherichia coli EC-1: VOGEL, mouse virulent. Kind of data set: MIC determination (CLSI), EC-1. Particulars: for MIC: Escherichia coli; for EC-1 MIC: Escherichia coli EC-1 VOGEL, mouse virulent. It is filed as cell-based. The gist of the method: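 E. coli Vogel, a mouse-virulent strain (EC-1), was tested. MICs were set by dilution susceptibility testing per CLSI standards M7-A7/M100-S18.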

Data set [4] concerns Klebsiella pneumoniae: Ciprofloxacin-resistant isolate, ESBL, clinical isolate (KP-3700). As to the kind of experiment: MIC determination (CLSI), KP-3700. Type of data set: cell-based. The gist of the method: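 Strain KP-3700, a clinical isolate producing extended-spectrum β-lactamases and resistant to ciprofloxacin, was tested. Minimum inhibitory concentrations determined via CLSI dilution methodology (M7-A7; M100-S18).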

In data set [5] the test system is Pseudomonas aeruginosa UI-18: Wild-type (PA-7). Kind of data set: MIC determination (CLSI), PA-7. Type of data set: cell-based. Conditions: for MIC: Pseudomonas aeruginosa; for PA-7 MIC: Pseudomonas aeruginosa UI-18 wild-type PA-7. In short, it runs like this: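 Wild-type P. aeruginosa UI-18 tested for minimum inhibitory concentration. Broth/agar dilution following CLSI standards (M7-A7, M100-S18).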

Where [6] appears, read: Table 3, read-out: PA LpxC enzyeme IC^50.
The mark [7] stands for this setting: P. aeruginosa LpxC enzyme, read-out: PA LpxC enzyeme IC50.

Converted amounts (≈) assume the structure as drawn. Like-named read-outs stand apart in the source and are kept apart here.

With `Cc1oc(-c2ccccc2F)nc1COc1ccc(CCC(C)(C(=O)NO)S(C)(=O)=O)cc1` (stereo not drawn) [Example 251, 4-(4-{[2-(2-fluorophenyl)-5-methyl-1,3-oxazol-4-yl]methoxy}phenyl)-N-hydroxy-2-methyl-2-(methylsulfonyl)butanamide], in data set [1] (setting [6]), the IC50 came out at 21.6 nM. Further, the MIC was no less than 64 µg/mL in data set [2] (Table 3, read-out: AB-3167 MIC); 32 µg/mL (≈ 67.2 µM) in data set [3] (read-out: EC-1 MIC); no less than 64 µg/mL in data set [5] (Table 3, read-out: PA-7 MIC). Further, the “KP-3700 MIC” value in data set [4] is reported as “≧64 mg/L”.
Turning to `CC(CCc1ccc(OCc2ccc(OC(F)(F)F)cc2)cc1)(C(=O)NO)S(C)(=O)=O` (stereo not drawn) [Example 288, N-hydroxy-2-methyl-2-(methylsulfonyl)-4-(4-{[4-(trifluoromethoxy)benzyl]oxy}phenyl)butanamide], the IC50 in data set [1] (setting [6]) was determined as 1.53 nM. In addition, the MIC amounted to 4 µg/mL (≈ 8.67 µM) in data set [2] (Table 3, read-out: AB-3167 MIC); 4 µg/mL (≈ 8.67 µM) in data set [3] (read-out: EC-1 MIC); 8 µg/mL (≈ 17.3 µM) in data set [5] (Table 3, read-out: PA-7 MIC). In addition, the “KP-3700 MIC” value in data set [4] was found to be 8 µg/mL.
Consider `CC(CCc1ccc(-c2ccc3nonc3c2)cc1)(C(=O)NO)S(C)(=O)=O` (stereo not drawn) [Example 174], for which, in data set [1] (setting [7]), the IC50 came out at 0.54 nM. The “AB-3167 MIC” value in data set [2] is “≧64 mg/L”. In addition, the “EC-1 MIC” value in data set [3] is 4 µg/mL. For the same molecule, in data set [4], the “KP-3700 MIC” value amounted to 8 µg/mL. In addition, the “PA-7 MIC” value in data set [5] was found to be 2 µg/mL.
In the case of `CC(CCc1ccc(-c2ccc3[nH]ccc3c2)cc1)(C(=O)NO)S(C)(=O)=O` (stereo not drawn) [Example 57], in data set [1] (setting [7]), the IC50 came to 0.295 nM. In data set [2], the “AB-3167 MIC” value was 8 µg/mL. In data set [3], the “EC-1 MIC” value is 0.5 µg/mL. Moreover, the “KP-3700 MIC” value in data set [4] is 8 µg/mL. Also, the “PA-7 MIC” value in data set [5] is 0.5 µg/mL.
For the molecule `CC(CCc1ccc(COc2ccccc2)cc1)(C(=O)NO)S(C)(=O)=O` (stereo not drawn) [Example 25, N-Hydroxy-2-methyl-2-(methylsulfonyl)-4-[4-(phenoxymethyl)phenyl]butanamide], the IC50 in data set [1] (Table 1, read-out: PA LpxC enzyeme IC50) was determined as 2.38 nM. In addition, the MIC in data set [2] (Table 1, MIC, read-out: AB-3167 (MIC)) came out at 16 µg/mL (≈ 42.4 µM); in data set [3] (read-out: EC-1: (MIC)), 4 µg/mL (≈ 10.6 µM); in data set [5] (Table 1, MIC, read-out: PA-7 (MIC)), 8 µg/mL (≈ 21.2 µM). Further, the “KP-3700 MIC” value in data set [4] was 16 µg/mL.
For the molecule `Cc1cc(-c2ccc(F)cc2)ccc1CCC(C)(C(=O)NO)S(C)(=O)=O` (stereo not drawn) [Example 157], the IC50 in data set [1] (setting [7]) was 0.337 nM. Besides, in data set [2], the “AB-3167 MIC” value was 8 µg/mL. Further, the “EC-1 MIC” value in data set [3] amounted to 1 µg/mL. Further, the “KP-3700 MIC” value in data set [4] turned out to be 4 µg/mL. Further, the “PA-7 MIC” value in data set [5] was 4 µg/mL.

In general, MIC refers to the lowest concentration found to suppress growth.
